Several values for one entry are separate records, joined by “and”; a condition that tells them apart may be missing. Equal values may be shown once. Read-outs that look alike come from different tables or passages of the source.
Key:
[1] = biological target: NR1/NR2B (Homo sapiens (Human), UniProt Q13224); assay: Cell assay: FDSS Ca2+ influx inhibition in HEK293 cells expressing NR1/NR2B;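 note: Fluo-8 Ca2+ signal read on Hamamatsu FDSS 6000 after glutamate, glycine and Ca2+ challenge following 10 min compound preincubation, end/baseline fluorescence ratio compared with MK801 control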
[2] = biological target: NR1/NR2B (Homo sapiens (Human), UniProt Q05586+Q13224); assay: as above
[3] = read-out: NR2B NAM IC50, HEK293 cells expressing NR1/NR2B, Ca2+ influx
[4] = Binned Activity, HEK293 cells expressing NR1/NR2B, Ca2+ influx, binned NR2B NAM IC50
[5] = read-out: Binned Activity, HEK293 cells expressing NR1/NR2B, Ca2+ influx, binned NR2B NAM IC50
[6] = NR2B NAM IC50, HEK293 cells expressing NR1/NR2B, Ca2+ influx

Sequence of NR1/NR2B (Homo sapiens (Human), UniProt Q05586+Q13224) (Q13224 27-1484, other chains not shown): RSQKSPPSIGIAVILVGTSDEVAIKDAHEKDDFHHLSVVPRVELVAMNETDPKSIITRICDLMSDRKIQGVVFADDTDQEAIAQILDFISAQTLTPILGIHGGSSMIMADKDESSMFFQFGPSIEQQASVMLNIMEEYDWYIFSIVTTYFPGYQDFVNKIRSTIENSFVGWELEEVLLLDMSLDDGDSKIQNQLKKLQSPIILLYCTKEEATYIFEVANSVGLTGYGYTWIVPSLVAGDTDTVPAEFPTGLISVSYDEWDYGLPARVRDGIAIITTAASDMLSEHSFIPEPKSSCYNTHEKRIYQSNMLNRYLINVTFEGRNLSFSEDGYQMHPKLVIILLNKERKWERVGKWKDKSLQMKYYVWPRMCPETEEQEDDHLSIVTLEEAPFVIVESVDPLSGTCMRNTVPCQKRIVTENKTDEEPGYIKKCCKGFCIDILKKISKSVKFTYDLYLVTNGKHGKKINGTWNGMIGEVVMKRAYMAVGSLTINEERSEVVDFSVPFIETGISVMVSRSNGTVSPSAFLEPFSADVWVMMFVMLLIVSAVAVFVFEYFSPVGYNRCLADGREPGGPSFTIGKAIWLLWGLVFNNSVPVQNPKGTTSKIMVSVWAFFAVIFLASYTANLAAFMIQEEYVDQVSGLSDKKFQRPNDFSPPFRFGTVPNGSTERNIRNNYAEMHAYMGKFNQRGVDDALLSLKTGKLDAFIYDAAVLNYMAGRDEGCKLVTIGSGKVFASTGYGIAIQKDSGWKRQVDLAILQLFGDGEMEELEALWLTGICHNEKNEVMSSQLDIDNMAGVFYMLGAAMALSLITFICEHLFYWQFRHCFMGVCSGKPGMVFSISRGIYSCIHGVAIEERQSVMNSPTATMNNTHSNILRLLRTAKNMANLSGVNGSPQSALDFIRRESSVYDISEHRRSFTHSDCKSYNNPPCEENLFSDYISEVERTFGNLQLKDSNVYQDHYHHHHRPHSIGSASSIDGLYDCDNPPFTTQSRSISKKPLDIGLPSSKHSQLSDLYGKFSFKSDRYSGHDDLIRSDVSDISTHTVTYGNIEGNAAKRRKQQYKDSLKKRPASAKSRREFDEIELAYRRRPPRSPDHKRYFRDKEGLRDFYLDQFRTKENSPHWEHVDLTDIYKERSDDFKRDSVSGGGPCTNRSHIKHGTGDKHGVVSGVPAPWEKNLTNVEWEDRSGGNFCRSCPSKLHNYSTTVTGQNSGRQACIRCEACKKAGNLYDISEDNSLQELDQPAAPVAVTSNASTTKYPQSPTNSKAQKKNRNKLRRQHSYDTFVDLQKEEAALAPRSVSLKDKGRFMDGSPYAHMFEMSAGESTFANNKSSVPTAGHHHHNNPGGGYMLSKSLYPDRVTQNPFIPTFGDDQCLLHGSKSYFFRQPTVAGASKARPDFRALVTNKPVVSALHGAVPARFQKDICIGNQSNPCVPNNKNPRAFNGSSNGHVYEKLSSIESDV
Sequence of NR1/NR2B (Homo sapiens (Human), UniProt Q13224) (Q13224 27-1484, other chains not shown): as above

Row | SMILES | IC50 [1, 3] | IC50 [2, 4] [µM] | other results
1 | Oc1ccc([C@H](O)CN2C[C@@H]3C[C@](O)(Cc4ccccc4)C[C@@H]3C2)cc1 [Example 292, (3aR,5S,6aS)-5-benzyl-2-((S)-2-hydroxy-2-(4-hydroxyphenyl)ethyl) octahydrocyclopenta [c]pyrrol-5-ol] | 4.71 µM | 1 to 10 | –
2 | O=C(CN1C[C@H]2C[C@@H](Cc3ccccc3)C[C@H]2C1)c1ccc(O)c(F)c1 [Example 307, 2-[(3aR,5S,6aS)-5-benzyl-octahydrocyclopenta[c]pyrrol-2-yl]-1-(3-fluoro-4-hydroxyphenyl) ethan-1-one] | 0.0412 µM | < 0.1 | –
3 | O=C(CN1C[C@@H]2C[C@](F)(Cc3ccccc3)C[C@@H]2C1)c1ccc(O)cc1 [Example 310, 2-((3aR,5s,6aS)-5-benzyl-5-fluorohexahydrocyclo-penta[c]pyrrol-2(1H)-yl)-1-(4-hydroxyphenyl)ethanone] | 0.175 µM | 0.1 to 1 | –
4 | CC(C)(C)c1ccc([C@]2(O)C[C@H]3CN(C(=O)Nc4ccc(Cl)c(C(F)(F)F)c4)C[C@H]3C2)cc1 [Example 53] | 10 µM | > 10 | –
5 | N#Cc1cccc(NC(=O)N2C[C@H]3C[C@@H](c4ccccc4)C[C@H]3C2)c1 [Example 107, N-(3-cyanophenyl)-5-phenyl-octahydrocyclopenta[c] pyrrole-2-carboxamide] | 10 µM | > 10 | –
6 | O=C1CCc2cc(C(=O)CN3C[C@@H]4C[C@@](O)(Cc5ccccc5)C[C@@H]4C3)ccc2N1 [Example 148, 6-(2-((3aR,5r,6aS)-5-benzyl-5-hydroxyhexahydrocyclo-penta[c]pyrrol-2(1H)-yl)acetyl)-3,4-dihydroquinolin-2(1H)-one] | 0.137 µM | 0.1 to 1 | –
7 | COc1cccc(NC(=O)N2C[C@@H]3C[C@@](O)(c4cccc(OC)c4)C[C@@H]3C2)c1 [Example 18, 5-hydroxy-N,5-bis(3-methoxyphenyl)-octahydrocyclopenta[c] pyrrole-2-carboxamide] | 10 µM | > 10 | –
8 | O=C(CN1C[C@H]2CC(Cc3ccccc3)C[C@H]2C1)c1ccc(O)cc1 (stereo partly drawn) [Example 295, 2-((3aR,6aS)-5-benzylhexahydrocyclo-penta[c]pyrrol-2(1H)-yl)-1-(4-hydroxyphenyl)ethanone] | 0.0517 µM | < 0.1 | –
9 | O=C(CN1C[C@@H]2CN(Cc3ccccc3)C[C@@H]2C1)c1ccc(O)cn1 [Example 328, 2-(5-benzylhexahydropyrrolo [3,4-c]pyrrol-2(1H)-yl)-1-(5-hydroxypyridin-2-yl)ethanone] | 10 µM | > 10 | –
10 | O=C(CN1C[C@@H]2C[C@@](O)(Cc3ccncc3)C[C@@H]2C1)c1ccc(O)cc1 [Example 226, 2-((3aR,5r,6aS)-5-hydroxy-5-(pyridin-4-ylmethyl)hexahydrocyclo-penta[c]pyrrol-2(1H)-yl)-1-(4-hydroxyphenyl)ethanone] | 3.89 µM | 1 to 10 | –
11 | Cc1ccccc1[C@]1(O)C[C@H]2CN(C(=O)Nc3ccccc3)C[C@H]2C1 [Example 30, 5-hydroxy-5-(2-methylphenyl)-N-phenyl-octahydrocyclopenta[c] pyrrole-2-carboxamide] | – | – | IC50 ([1]; read-out: NR2B NAM IC50): 10 µM; IC50 ([2]; Binned Activity): > 10 µM
12 | Oc1ccc([C@@H](O)CN2C[C@@H]3C[C@@](O)(Cc4ccccc4)C[C@@H]3C2)cc1F [Example 180, (3aR,5R,6aS)-5-benzyl-2-((R)-2-(3-fluoro-4-hydroxyphenyl)-2-hydroxyethyl)octahydro-cyclopenta[c]pyrrol-5-ol] | 0.0223 µM and 0.0228 µM | < 0.1 | –
13 | O=C(CN1C[C@@H]2C[C@@](O)(Cc3cccc(F)c3F)C[C@@H]2C1)c1ccc(O)cn1 [Example 247, 2-((3aR,5r,6aS)-5-(2,3-difluorobenzyl)-5-hydroxyhexahydrocyclo-penta[c]pyrrol-2(1H)-yl)-1-(5-hydroxypyridin-2-yl)ethanone] | 3.06 µM | 1 to 10 | –
14 | Oc1ccc([C@H](O)CN2C[C@@H]3C[C@@](O)(Cc4ccccc4)C[C@@H]3C2)cc1 [Example 143, (3aR,5S,6aS)-5-benzyl-2-((S)-2-hydroxy-2-(4-hydroxyphenyl)ethyl)octa-hydrocyclopenta[c]pyrrol-5-ol] | – | – | IC50 [1, 5]: < 0.1 µM
15 | O=C(CN1CC2CC(Cc3ccccc3)CC2C1)c1ccc(O)c(F)c1 (centres unmarked) [Example 299, 2-{5-benzyl-octahydrocyclopenta[c]pyrrol-2-yl}-1-(3-fluoro-4-hydroxyphenyl) ethan-1-one] | – | – | IC50 ([1]; read-out: Binned Activity): < 0.1 µM; IC50 ([1]; read-out: NR2B NAM IC50): 0.0781 µM
16 | O=C(CN1CC2CC(O)(c3ccccc3)CC2C1)c1ccccc1 (centres unmarked) [Example 57, 2-(5-hydroxy-5-phenylhexahydrocyclo-penta[c]pyrrol-2(1H)-yl)-1-phenylethanone] | 10 µM | – | IC50 [1, 5]: > 10 µM
17 | O=C(CN1CC2CC(Cc3ccccc3)CC2C1)c1ccc(O)cn1 (centres unmarked) [Example 297, 2-{5-benzyl-octahydrocyclopenta[c]pyrrol-2-yl}-1-(5-hydroxypyridin-2-yl)ethan-1-one] | 0.792 µM | – | IC50 [1, 5]: 0.1 to 1 µM
18 | Oc1ccc(C(O)CN2C[C@@H]3C[C@@](O)(Cc4ccc(C(F)(F)F)cc4)C[C@@H]3C2)cc1 (mixture of isomers) [Example 224, rac-(3aR,5R,6aS)-2-[2-hydroxy-2-(4-hydroxyphenyl)ethyl]-5-{[4-(trifluoromethyl)phenyl]methyl}-octahydrocyclopenta[c] pyrrol-5-ol] | – | – | IC50 [2, 6]: 0.0848 µM
19 | Cc1cc(C)cc(C[C@]2(O)C[C@H]3CN(CC(O)c4ccc(O)cc4)C[C@H]3C2)c1 (mixture of isomers) [Example 213, rac-(3aR,5R,6aS)-5-[(3,5-dimethylphenyl)methyl]-2-[2-hydroxy-2-(4-hydroxyphenyl)ethyl]-octahydrocyclopenta[c] pyrrol-5-ol] | – | – | IC50 [2, 6]: 0.566 µM
20 | Oc1ccc(C(O)CN2C[C@H]3C[C@@H](Cc4ccccc4)C[C@H]3C2)cc1 (mixture of isomers) [Example 304, rac-4-{2-[(3aR,5S,6aS)-5-benzyl-octahydrocyclopenta[c]pyrrol-2-yl]-1-hydroxyethyl}phenol] | – | < 0.1 | IC50 [2, 6]: 0.0168 µM

The next lines start with results.

Row | IC50 [1, 3] | IC50 [2, 4] [µM] | SMILES | other results
21 | 10 µM | > 10 | Cc1cccc(N2C[C@@H]3C[C@@](O)(c4ccc(C(C)(C)C)cc4)C[C@@H]3C2)n1 [Example 89, 5-(4-tert-butylphenyl)-2-(6-methylpyridin-2-yl)-octahydrocyclopenta[c] pyrrol-5-ol] | –
22 | 0.372 µM | 0.1 to 1 | O=C(CN1C[C@@H]2C[C@@](O)(Cc3ccccc3)C[C@@H]2C1)c1ccc(O)c(F)c1 [Example 151, 2-((3aR,5r,6aS)-5-benzyl-5-hydroxyhexahydrocyclo-penta[c]pyrrol-2(1H)-yl)-1-(3-fluoro-4-hydroxyphenyl)ethanone] | –
23 | 0.118 µM | 0.1 to 1 | O=C(CN1C[C@@H]2C[C@@](O)(Cc3c(F)cccc3F)C[C@@H]2C1)c1ccc(O)cc1 [Example 241, 2-[(3aR,5R,6aS)-5-[(2,6-difluorophenyl)methyl]-5-hydroxy-octahydrocyclopenta[c]pyrrol-2-yl]-1-(4-hydroxyphenyl)ethan-1-one] | –
24 | 10 µM | > 10 | O=C(CN1C[C@@H]2C[C@@](O)(CC3CC3)C[C@@H]2C1)c1ccc(O)cc1 [Example 210, 2-((3aR,5r,6aS)-5-(cyclopropylmethyl)-5-hydroxyhexahydrocyclo-penta[c]pyrrol-2(1H)-yl)-1-(4-hydroxyphenyl)ethanone] | –
25 | 10 µM | > 10 | COc1cccc(C[C@]2(O)C[C@H]3CN(CC(=O)c4ccc(O)c(F)n4)C[C@H]3C2)c1 [Example 200, 1-(6-fluoro-5-hydroxypyridin-2-yl)-2-((3aR,5r,6aS)-5-hydroxy-5-(3-methoxy-benzyl)hexahydro-cyclopenta[c]pyrrol-2(1H)-yl)ethanone] | –
26 | 10 µM | > 10 | COc1cccc(-c2cccc(C(=O)CN3C[C@@H]4C[C@@](O)(Cc5ccccc5)C[C@@H]4C3)c2)c1 [Example 273, 2-((3aR,5r,6aS)-5-benzyl-5-hydroxyhexahydrocyclo-penta[c]pyrrol-2(1H)-yl)-1-(3′-methoxy-[1,1′-biphenyl]-3-yl)ethanone] | –
27 | 10 µM | > 10 | O=C(CN1C[C@@H]2C[C@@](O)(Cc3ccccc3)C[C@@H]2C1)c1cnc(O)cn1 [Example 187, 2-((3aR,5r,6aS)-5-benzyl-5-hydroxyhexahydrocyclo-penta[c]pyrrol-2(1H)-yl)-1-(5-hydroxypyrazin-2-yl)ethanone] | –
28 | 10 µM | > 10 | COc1cccc([C@]2(O)C[C@H]3CN(C(=O)Nc4cc(C)ccc4OC)C[C@H]3C2)c1 [Example 33, 5-hydroxy-N-(2-methoxy-5-methylphenyl)-5-(3-methoxyphenyl)-octahydrocyclopenta[c] pyrrole-2-carboxamide] | –
29 | 10 µM | > 10 | COC(=O)c1ccc(NC(=O)N2C[C@@H]3C[C@@](O)(c4ccccc4)C[C@@H]3C2)cc1 [Example 28, methyl 4-[({5-hydroxy-5-phenyl-octahydrocyclopenta[c]pyrrol-2-yl}carbonyl)amino] benzoate] | –
30 | 10 µM | – | OC(CN1C[C@@H]2CC(O)(Cc3ccccc3)C[C@@H]2C1)c1ccc(F)cc1 (mixture of isomers) [Example 289, rac-(3aR,5r,6aS)-5-benzyl-2-(2-(4-fluorophenyl)-2-hydroxyethyl)octahydro-cyclopenta[c]pyrrol-5-ol] | IC50 [1, 5]: > 10 µM
31 | 0.426 µM | – | O=C(CN1CC2CC(CCc3ccccc3)CC2C1)c1ccc(O)cc1 (centres unmarked) [Example 323, 1-(4-hydroxyphenyl)-2-(5-phenethyl-hexahydrocyclo-penta[c]pyrrol-2(1H)-yl)ethanone] | IC50 [1, 5]: 0.1 to 1 µM

Source: US10052306B2 (LUC THERAPEUTICS, INC., priority 2013, dated 2018)
